Measured values reported in patent US6831075B2, “Heterocyclic substituted pyrazolones” (Cephalon, Inc., priority 1999, dated 2004).

Assays:
Format in all cases: biochemical
[1] = molecular target: T1, baculovirus-expressed human trkA cytoplasmic domain (Homo sapiens, UniProt P04629); assay: trkA tyrosine kinase inhibition assay (ELISA-based); conditions: 1 uM compound; 40 μM ATP
T1 construct: baculovirus-expressed human trkA cytoplasmic domain; host or cells: baculovirus expression system
Procedure: Inhibition of trkA Tyrosine Kinase Activity
Selected heterocyclic substituted pyrazolones were tested for their ability to inhibit the kinase activity of baculovirus-expressed human trkA cytoplasmic domain using an ELISA-based assay as previously described (Angeles et al., Anal. Biochem. 236: 49-55, 1996). Briefly, a 96-well microtiter plate was coated with substrate solution (recombinant human phospholipase C-γl/glutathione S-transferase fusion protein (Rotin et al., EMBO J., 11: 559-567, 1992). Inhibition studies were performed in 100 μl assay mixtures containing 50 mM Hepes, pH 7.4, 40 μM ATP, 10 mM MnCl2, 0.1% BSA, 2% DMSO, and various concentrations of inhibitor. The reaction was initiated by addition of trkA kinase and allowed to proceed for 15 minutes at 37° C. An antibody to phosphotyrosine (UBI) was then added, followed by a secondary enzyme-conjugated antibody, alkaline phosphatase-labelled goat anti-mouse IgG (Bio-Rad). The activity of the bound enzyme was measured via an amplified detection system (Gibco-BRL). Inhibition data were analyzed using the sigmoidal dose-response (variable slope) equation in GraphPad Prism.

baculoviral GST-MLK1KD = molecular target: T2, baculoviral GST-MLK1KD (Homo sapiens, UniProt P80192); assay: Mixed Lineage Kinase-1 inhibition assay (Millipore Multiscreen TCA in-plate, 32P); conditions: for MLK-1 Kinase % inhibition @ 1 uM: 1 uM compound, 60 μM ATP; for inhibition at 1 µM: read-out: MLK-1 Kinase % inhibition @ 1 uM
T2 construct: 1 μg/ml of baculoviral GST-MLK1KD; GST (N); host or cells: baculovirus expression system
Procedure: Inhibition of Mixed Lineage Kinase-1 Activity
The kinase activity of MLK1 was assessed using the Millipore Multiscreen TCA “in-plate” format as described for protein kinase C (Pitt & Lee, J. Biomol. Screening, 1: 47-51, 1996). Briefly, each 50-μl assay mixture contained 20 mM Hepes, pH 7.0, 1 mM EGTA, 10 mM MgCl2, 1 mM DTT, 25 mM β-glycerophosphate, 60 μM ATP, 0.25 μCi [γ-^32P]ATP, 0.1% BSA, 500 μg/ml myelin basic protein (UBI #13-104), 2% DMSO, 1 μM of test compound, and 1 μg/ml of baculoviral GST-MLK1KD. Samples were incubated for 15 min at 37° C. The reaction was stopped by adding ice cold 50% TCA and the protein were allowed to precipitate for 30 min at 4° C. The plates were then washed with ice cold 25% TCA. Supermix scintillation cocktail was added, and the plates were allowed to equilibrate for 1-2 hours prior to counting using the Wallac MicroBeta 1450 PLUS scintillation counter.

baculoviral GST-MLK3KD = molecular target: T3, baculoviral GST-MLK3KD (Homo sapiens, UniProt Q16584); assay: Mixed Lineage Kinase-3 inhibition assay (Millipore Multiscreen plate, 32P); conditions: 1 uM compound, 100 μM ATP; for inhibition at 1 µM: read-out: MLK-3 Kinase % inhibition @ 1 uM
T3 construct: 2 μg/ml of baculoviral GST-MLK3KD; GST (N); host or cells: baculovirus expression system
Procedure: Inhibition of Mixed Lineage Kinase-3 Activity
Assays were performed using the Millipore Multiscreen plate format as described for MLK1. Briefly, each 50-μl assay mixture contained 20 mM Hepes, pH 7, 1 mM EGTA, 10 mM MgCl2, 1 mM DTT, 25 mM β-glycerophosphate, 100 μM ATP, 0.25 μCi [γ-^32P]ATP, 0.1% BSA, 500 μg/ml myelin basic protein (UBI #13-104), 2% DMSO, various concentrations of test compound, and 2 μg/ml of baculoviral GST-MLK3KD. Samples were incubated for 15 min at 37° C. The reaction was stopped by adding ice cold 50% TCA and the proteins were allowed to precipitate for 30 min at 4° C. The plates were then washed with ice cold 25% TCA. Supermix scintillation cocktail was added, and the plates were allowed to equilibrate for 1-2 hours prior to counting.

[2] = molecular target: T4, recombinant human baculovirus-expressed FGFR1 cytoplasmic domain (Homo sapiens, UniProt P11362); assay: FGFR1 kinase inhibition assay (ELISA-based, time-resolved fluorescence); conditions: 1 uM compound; 20 μM ATP
T4 construct: recombinant human baculovirus-expressed FGFR1 cytoplasmic domain; host or cells: baculovirus expression system
Procedure: Inhibition of Fibroblast Growth Factor Receptor-1 (FGFR1) Kinase Activity
The FGFR1 kinase activity was measured using an ELISA-based format in a 96-well FluoroNUNC Maxisorp plate with a time-resolved fluorescence readout as described for trkA kinase. The plate was coated with 100 μl/well of substrate solution (recombinant human PLC-γ/GST) at a concentration of 10 μg/ml in Tris buffered saline (TBS). The FDGFR1 activity was assayed in 100-μl assay micture containing 50 mM HEPES (pH 7.4), 20 μM ATP, 10 mM MnCl2, 0.1% BSA, 2% DMSO, and 15 ng/ml recombinant human baculovirus-expressed FGFR1 cytoplasmic domain (prephosphorylated prior to use). Compounds were screened for inhibition of the FGFR1 kinase activity at a conentration of 1 μM. The kinase reaction was allowed to proceed at 37° C. for 15 minutes. The detection antibody, europium-labeled anti-phosphotyrosine antibody (Wallace #CR04-100), was added at 1:5000 dilution in block buffer (3% BSA in TBST). After a 1-hour incubation at 37° C., 100 μl of enhancement solution (Wallac #1244-105) and the plate was gently agitated. After 5 min, the fluorescence of the resulting solutions measured using the BMG Fluostar (Model # 403).

T1 sequence (P04629 440-796 limits assumed): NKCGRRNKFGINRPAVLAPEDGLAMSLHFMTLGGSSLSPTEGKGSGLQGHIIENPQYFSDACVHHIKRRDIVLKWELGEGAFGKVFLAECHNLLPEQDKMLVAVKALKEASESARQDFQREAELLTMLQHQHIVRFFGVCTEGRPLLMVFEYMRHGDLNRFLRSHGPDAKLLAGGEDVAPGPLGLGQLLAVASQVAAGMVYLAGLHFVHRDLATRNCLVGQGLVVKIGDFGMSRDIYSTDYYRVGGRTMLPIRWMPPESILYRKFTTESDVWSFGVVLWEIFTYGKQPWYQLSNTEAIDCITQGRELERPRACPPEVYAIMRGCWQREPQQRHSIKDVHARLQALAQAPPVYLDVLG
T3 sequence (Q16584 117-379 limits assumed): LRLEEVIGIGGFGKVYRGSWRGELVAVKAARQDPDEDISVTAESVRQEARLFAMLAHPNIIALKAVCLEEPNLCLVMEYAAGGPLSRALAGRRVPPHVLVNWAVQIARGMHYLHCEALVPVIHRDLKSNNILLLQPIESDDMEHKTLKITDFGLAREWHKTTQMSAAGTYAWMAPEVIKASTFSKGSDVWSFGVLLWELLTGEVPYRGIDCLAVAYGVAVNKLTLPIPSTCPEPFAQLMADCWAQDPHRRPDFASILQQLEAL
T2 sequence (P80192 144-412 limits assumed): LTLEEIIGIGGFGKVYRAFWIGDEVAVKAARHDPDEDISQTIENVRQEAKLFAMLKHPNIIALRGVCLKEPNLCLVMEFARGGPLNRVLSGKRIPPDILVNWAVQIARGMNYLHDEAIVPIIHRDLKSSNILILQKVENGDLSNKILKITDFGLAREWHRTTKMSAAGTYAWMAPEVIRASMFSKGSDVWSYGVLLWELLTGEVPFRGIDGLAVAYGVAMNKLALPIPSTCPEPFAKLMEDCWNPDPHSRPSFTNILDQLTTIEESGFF
T4 sequence (P11362 398-822 limits assumed): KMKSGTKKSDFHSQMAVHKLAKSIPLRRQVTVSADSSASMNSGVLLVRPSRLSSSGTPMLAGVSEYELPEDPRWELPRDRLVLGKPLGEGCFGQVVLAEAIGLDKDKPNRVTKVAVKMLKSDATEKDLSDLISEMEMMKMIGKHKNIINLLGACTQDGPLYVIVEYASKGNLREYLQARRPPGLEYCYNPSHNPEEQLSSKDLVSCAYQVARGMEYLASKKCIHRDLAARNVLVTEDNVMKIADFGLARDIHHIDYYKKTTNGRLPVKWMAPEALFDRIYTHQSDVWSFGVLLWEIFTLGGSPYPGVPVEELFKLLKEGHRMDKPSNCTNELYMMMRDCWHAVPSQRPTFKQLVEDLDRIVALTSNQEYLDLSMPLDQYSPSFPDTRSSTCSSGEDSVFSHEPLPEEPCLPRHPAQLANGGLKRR

SMILES	trkA % inhibition @ 1 uM [1]	MLK-1 Kinase % inhibition @ 1 uM (baculoviral GST-MLK1KD)	MLK-3 Kinase % inhibition @ 1 uM (baculoviral GST-MLK3KD)	FGFR1 % inhibition @ 1 uM [2]	inhibition at 1 µM [1]	inhibition at 1 µM (baculoviral GST-MLK1KD)	inhibition at 1 µM (baculoviral GST-MLK3KD)	inhibition at 1 µM [2]
Cc1cc(C)c(C=C2C(=O)NN=C2c2cccnc2)[nH]1 [Compound 10]	26%	22%	44%	14%	–	–	–	–
Cc1cc(C)c(C=C2C(=O)NN=C2c2cccs2)[nH]1 [Compound 61]	35%	8%	72%	35%	–	–	–	–
Cn1cc(C=C2C(=O)NN=C2c2nccs2)c2ccccc21 [Compound 60]	71%	37%	58%	66%	–	–	–	–
Cc1nc(C)c(C2=NNC(=O)C2=Cc2c[nH]c3ccccc23)s1 [Compound 13]	45%	10%	17%	30%	–	–	–	–
O=C1NN=C(c2cccs2)C1=Cc1c[nH]c2ccccc12 [Compound 38, 4-(indol-3-ylmethylene)-3-(2-thienyl)-2-pyrazolin-5-one]	–	–	–	–	40%	16%	38%	28%
Cc1cccc2c(C=C3C(=O)NN=C3c3ccoc3)c[nH]c12 [Compound 22]	44%	1%	24%	22%	–	–	–	–
O=C1NN=C(c2nccs2)C1=Cc1cn(Cc2ccccc2)c2ccccc12 [Compound 70]	32%	21%	15%	21%	–	–	–	–
Cc1cc(C)c(C=C2C(=O)NN=C2c2nccs2)[nH]1 [Compound 26, 4-[(3,5-dimethylpyrrol-2-yl)methylene]-3-(1,3-thiazol-2-yl)-2 pyrazolin-5-one]	–	–	–	–	42%	10%	57%	46%
O=C1NN=C(c2ccoc2)C1=Cc1c[nH]c2ccc(F)cc12 [Compound 19]	45%	4%	11%	23%	–	–	–	–
O=C1NN=C(c2ccoc2)C1=Cc1c[nH]c2ccccc12 [Compound 9]	41%	22%	27%	17%	–	–	–	–
Cc1cc(C)c(C=C2C(=O)NN=C2c2sc(C)nc2C)[nH]1 [Compound 14]	35%	8%	14%	22%	–	–	–	–
Cc1cc(C)c(C=C2C(=O)NN=C2c2cc(-c3ccc(Cl)cc3)oc2C)[nH]1 [Compound 41]	17%	13%	10%	21%	–	–	–	–
O=C1NN=C(c2cc3ccccc3o2)C1=Cc1c[nH]c2ccccc12 [Compound 58]	30%	44%	43%	24%	–	–	–	–
CN(C)c1ccc(C=C2C(=O)NN=C2c2ccco2)cc1 [Compound 52]	10%	5%	19%	10%	–	–	–	–
O=C1NN=C(c2ccco2)C1=Cc1c[nH]c2ccc(OCc3ccccc3)cc12 [Compound 43]	42%	13%	21%	26%	–	–	–	–
Cn1cc(C=C2C(=O)NN=C2c2cccs2)c2ccccc21 [Compound 63]	60%	14%	78%	38%	–	–	–	–
N#CCCn1cc(C=C2C(=O)NN=C2c2nccs2)c2ccccc21 [Compound 64]	10%	10%	15%	7%	–	–	–	–
Cc1cccc2c(C=C3C(=O)NN=C3c3ccco3)c[nH]c12 [Compound 47]	37%	33%	31%	32%	–	–	–	–
Cn1cccc1C1=NNC(=O)C1=Cc1c[nH]c2ccc(F)cc12 [Compound 56]	48%	−22%	−1%	30%	–	–	–	–
Cc1cc(C)c(C=C2C(=O)NN=C2c2ccco2)[nH]1 [Compound 28, 4-[(3,5-dimethylpyrrol-2-yl)methylene]-3-(2-furyl)-2-pyrazolin-5-one]	–	–	–	–	34%	2%	50%	37%
Cc1cc(C)c(C=C2C(=O)NN=C2c2csc3ccccc23)[nH]1 [Compound 39]	31%	4%	55%	13%	–	–	–	–
Cc1cc(C)c(C=C2C(=O)NN=C2c2ccncc2)[nH]1 [Compound 3]	60%	2%	12%	29%	–	–	–	–
O=C1NN=C(c2cccs2)C1=Cc1c[nH]c2ccccc12 [Compound 62]	45%	15%	45%	37%	–	–	–	–
CCOC(=O)CCc1c(C(=O)OCC)[nH]c(C=C2C(=O)NN=C2c2ccoc2)c1CC(=O)OCC [Compound 7]	33%	9%	7%	28%	–	–	–	–
Cc1c(I)[nH]c(C=C2C(=O)NN=C2c2ccoc2)c1I [Compound 6]	31%	25%	3%	20%	–	–	–	–
O=C1NN=C(c2ccco2)C1=Cc1c[nH]c2ccc(F)cc12 [Compound 48]	47%	2%	31%	43%	–	–	–	–
Cn1cc(C=C2C(=O)NN=C2c2ccco2)c2ccccc21 [Compound 45]	39%	24%	56%	8%	–	–	–	–
